Test results: PMC12081876, “Identification of PTGR2 inhibitors as a new therapeutic strategy for diabetes and obesity” (EMBO Molecular Medicine, 2025)
“And” between values parts separate entries of the source, which are not always exact repeats. Equal values may be shown once.

How the values were obtained:
Assay type in all cases: in vivo, mouse
[1] = tested on: murine PPARγ Ser273 phosphorylation; test: PPARγ Ser273 phosphorylation in adipose tissue of mice; conditions: 40 mg/kg/day, 3 weeks, HFHSD
Experimental: The epididymal adipose tissues were obtained and lysed in RIPA buffer supplemented with 1X cOmplete™, EDTA-free Protease Inhibitor Cocktail (cat no.04693132001, Roche) and 1X PhosSTOP™ (cat. no. 4906845001, Roche).
The protein concentrations of tissue lysates were measured by Bradford reagent (cat. no. BP500-0006, Bio-Rad). The protein samples were mixed with 6X sample buffer (0.3 M Tris-HCl, pH 6.8, 0.6 M DTT, 12% SDS, 0.6% Bromophenel blue and 60% glycerol) and heated at 70 °C for 5 min. 30 μg of each sample were separated by 10% SDS-PAGE gel and were transferred to PVDF membrane. The membrane was blocked by 3% BSA in Tris-buffered saline containing 0.1% Tween-20 for 1 h at room temperature and incubated with primary antibody at 4 °C overnight. Primary antibodies include anti-Ser273 phospho-PPARγ (1:1000, cat. no. BS-4888R, Bioss), anti-PPARγ (1:1500, cat. no.16643-1-AP, Proteintech) and anti-GAPDH (1:5000, cat. no. GTX100118, GeneTex). On the next day, the membranes were incubated with the anti-rabbit IgG HRP-secondary antibody (1:10,000, cat. no. GTX213110-01, GeneTex) for 1 h at RT. Immunoblots were developed using the Immobilon Forte Western HRP Substrate (cat. no. WBLUF0500, Lot Number: 231445, Millipore) and exposed by MultiGel-21 (cat. no. MGIS-21-C2, EBL). Protein expression of phospho-PPARγ was analyzed using ImageJ software and normalized against PPARγ and GAPDH.

[2] = tested on: F4/80-positive macrophages; test: F4/80 immunohistochemical stain of perigonadal fat; conditions: 100 mg/kg/day oral, HFHSD-fed mice, vs vehicle
Experimental: Mice perigonadal fat were paraffin-embedded and the 4-µm tissue sections were cut from the paraffin blocks on the slides by Pathology core of the Institute of Biomedical Sciences, Academia Sinica. The slides were conducted immunochemistry staining using primary antibodies for F4/80 (1:200; cat#H0005972-M01, Abnova) and digitized using an Olympus BX51 microscope combined with an Olympus DP72 camera and CellSens Standard 1.14 software (Olympus, Germany).

[3] = Necropsy, gross and histopathological examination; parameters: key to Brain, Forebrain / Brain, Cerebellum and Pons / Heart: Vacuolation, cardiomyocyte / Lung: Alveolar epithelium hyperplasia / Lung: Chronic inflammation, focal / Liver: Hepatocellular adenoma, multiple / Brain, Midbrain / Kidney: Hyaline cast, renal tubule / Kidney: Cytoplasmic vacuolation, renal tubule / Kidney: Mineralization, renal tubule / Pancreas: Atrophy and accumulation adipocyte, acinar cell / Pancreas: Pancreatic islets hyperplasia / Pancreas: Lymphocytic infiltration, perivascular / Brown fat: Increased adipocyte size / White fat (Perigonadal fat) / Bone marrow, Sternum/ Femur / Bone marrow: Mineralization, focal / Bone marrow: Cellularity, decreased, bone marrow: + = Present; - =Not present; X=Not remarkable lesion; 1 = minimal (< 1%); 2 = mild (1–25%); 3 = moderate (26–50%); 4 = moderately severe (51–75%); 5 = severe/high (76–100%); conditions: for overall toxicity / pathology conclusion: mice treated 26 weeks
Experimental: The animals were sacrificed by exsanguination under anesthesia with pure carbon dioxide.
At necropsy, tissue samples of the submitted mice were collected and preserved in 10% neutral buffered formalin. The required tissues/organs of animals were trimmed, processed, and embedded in paraffin. Sections 3–5 μm in thickness were cut and put on slides for hematoxylin and eosin (H&E) staining. The histopathological evaluation was performed on the submitted tissues. Severity of lesions was graded according to the methods described (Shackelford et al, [2002]). Degrees of lesions were graded histopathologically from one to five depending on severity (1 = minimal; 2 = slight; 3 = moderate; 4 = moderately severe; 5 = severe/high).

[4] = Test group, one animal, 26 weeks
[5] = Test group, one value per animal, 26 weeks

**Q.** For CCCCCC(=O)/C=C/[C@H]1[C@H](O)CC(=O)[C@@H]1C/C=C\CCCC(=O)O [15-keto-PGE2, 15-keto-prostaglandin E2], which “phosphorylation of PPARγ Ser273” value [1] is on record?
**A.** dose-dependently reduced phosphorylation of Ser273

**Q.** Which “F4/80-positive macrophages in perigonadal fat” value [2] does the source give for Cc1[nH]c2nc(C(C)N3CCN(c4ccccc4)CC3)nn2c(=O)c1Cc1ccc(F)cc1 (stereo not drawn) [BPRPT0245] here?
**A.** fewer F4/80-positive macrophages

**Q.** And the “Pathological examination of bone marrow, brain, heart, lung, kidney, pancreas, brown fat, perigonadal fat” value ([3]; 26 weeks, vs vehicle)?
**A.** no significant difference

**Q.** And the “White fat (Perigonadal fat)” value ([3]; Test group, first two animals, 26 weeks)?
**A.** X

**Q.** And the “White fat (Perigonadal fat): Inflammatory cell infiltration” value ([3]; Test group, last two animals, 26 weeks)?
**A.** 1 (1 = minimal (< 1%)) and 2 (2 = mild (1–25%))

**Q.** And the “Bone marrow: Cellularity, decreased, bone marrow” value [3, 4]?
**A.** -

**Q.** And the “Bone marrow: Infiltration, lymphocyte” value [3, 4]?
**A.** 1 (1 = minimal (< 1%))

**Q.** And the “Bone marrow: Mineralization, focal” value [3, 4]?
**A.** -

**Q.** And the “Brain, Forebrain” value ([3]; Test group, one value per animal (T1,T2,T2[sic],T4), 26 weeks)?
**A.** X

**Q.** And the “Brain, Cerebellum and Pons” value [3, 5]?
**A.** X

**Q.** What about the “Brain, Midbrain” value [3, 5] of the same compound?
**A.** X

**Q.** What about the “Brown fat: Increased adipocyte size” value [3, 5] of the same compound?
**A.** +

**Q.** And the “Heart: Inflammatory cell infiltration/Cardiomyopathy” value [3, 5]?
**A.** 2 (2 = mild (1–25%)) (3×) and 1 (1 = minimal (< 1%))

**Q.** And the “Heart: Vacuolation, cardiomyocyte” value [3, 5]?
**A.** - (3×) and 2 (2 = mild (1–25%))

**Q.** What about the “Kidney: Cytoplasmic vacuolation, renal tubule” value [3, 5] of the same compound?
**A.** 2 (2 = mild (1–25%)) (3×) and -

**Q.** And the “Kidney: Hyaline cast, renal tubule” value [3, 5]?
**A.** 1 (1 = minimal (< 1%)) and - (3×)

**Q.** And the “Kidney: Inflammatory cell infiltration, peripelvic /perivacscular” value [3, 5]?
**A.** 2 (2 = mild (1–25%)) (3×) and 1 (1 = minimal (< 1%))

**Q.** And the “Kidney: Mineralization, renal tubule” value [3, 5]?
**A.** 1 (1 = minimal (< 1%)) and - (3×)

**Q.** And the “Kidney: Tubular degeneration/regeneration with inflammatory cell infiltration” value [3, 5]?
**A.** 2 (2 = mild (1–25%))

**Q.** And the “Liver: Hepatocellular adenoma, multiple” value [3, 5]?
**A.** -

**Q.** And the “Liver: Inflammation” value [3, 5]?
**A.** 1 (1 = minimal (< 1%)) (2×) and 2 (2 = mild (1–25%)) (2×)

**Q.** What about the “Liver: Lymphocytic cell infiltration, perivascular” value [3, 5] of the same compound?
**A.** 1 (1 = minimal (< 1%)) (2×) and 2 (2 = mild (1–25%)) (2×)

**Q.** What about the “Liver: Steatosis” value [3, 5] of the same compound?
**A.** 2 (2 = mild (1–25%)) (2×) and 4 (4 = moderately severe (51–75%)) (2×)

**Q.** And the “Lung: Alveolar epithelium hyperplasia” value [3, 5]?
**A.** 2 (2 = mild (1–25%)) and - (3×)

**Q.** And the “Lung: Chronic inflammation, focal” value [3, 5]?
**A.** 1 (1 = minimal (< 1%)) (2×) and - (2×)

**Q.** What about the “Lung: Inflammatory cell infiltration, perivascular” value [3, 5] of the same compound?
**A.** 1 (1 = minimal (< 1%)) (2×) and 2 (2 = mild (1–25%)) (2×)

**Q.** What about the “Pancreas: Atrophy and accumulation adipocyte, acinar cell” value [3, 5] of the same compound?
**A.** -

**Q.** What about the “Pancreas: Fat infiltration, exocrine” value [3, 5] of the same compound?
**A.** 2 (2 = mild (1–25%)) (2×) and 1 (1 = minimal (< 1%)) (2×)

**Q.** What about the “Pancreas: Lymphocytic infiltration, perivascular” value [3, 5] of the same compound?
**A.** - (2×) and 2 (2 = mild (1–25%)) (2×)

**Q.** And the “Pancreas: Pancreatic islets hyperplasia” value [3, 5]?
**A.** 1 (1 = minimal (< 1%)) (2×) and - (2×)

**Q.** What about the “Bone marrow, Sternum/ Femur” value ([3]; Test group, three animals, 26 weeks) of the same compound?
**A.** X

**Q.** What about the “overall toxicity / pathology conclusion” value [3] of the same compound?
**A.** no detectable toxicity

**Q.** And the “overall toxicity / pathology conclusion” value ([3]; listed as test article)?
**A.** not related
